Reference: BigSolDB 2.1

`COC(=O)c1cc(O)c(O)c(O)c1` showed a solubility (mole fraction) (in acetone, 293.15 K) of 0.0929, a solubility (mole fraction) (in acetone, 298.15 K) of 0.099 and a solubility (mole fraction) (in acetone, 303.15 K) of 0.106. The solubility (mole fraction) (in acetone, 308.15 K) was 0.113, the solubility (mole fraction) (in acetone, 313.15 K) was 0.121 and the solubility (mole fraction) (in acetone, 318.15 K) was 0.13. For the same compound, the solubility (mole fraction) (in acetone, 323.15 K) was 0.139, the solubility (mole fraction) (in acetone, 328.15 K) was 0.15 and the solubility (mole fraction) (in acetone, 333.15 K) was 0.161. The solubility (mole fraction) (in ethanol, 293.15 K) was 0.0706, the solubility (mole fraction) (in ethanol, 298.15 K) was 0.0758 and the solubility (mole fraction) (in ethanol, 303.15 K) was 0.0819. For the same compound, the solubility (mole fraction) (in ethanol, 308.15 K) was 0.0881, the solubility (mole fraction) (in ethanol, 313.15 K) was 0.0955 and the solubility (mole fraction) (in ethanol, 318.15 K) was 0.103. The solubility (mole fraction) (in ethanol, 323.15 K) was 0.11, the solubility (mole fraction) (in ethanol, 328.15 K) was 0.119 and the solubility (mole fraction) (in ethanol, 333.15 K) was 0.128. It also gave a solubility (mole fraction) (in ethyl acetate, 293.15 K) of 0.0217, a solubility (mole fraction) (in ethyl acetate, 298.15 K) of 0.0247 and a solubility (mole fraction) (in ethyl acetate, 303.15 K) of 0.0283. For the same compound, the solubility (mole fraction) (in ethyl acetate, 308.15 K) was 0.0324, the solubility (mole fraction) (in ethyl acetate, 313.15 K) was 0.0372 and the solubility (mole fraction) (in ethyl acetate, 318.15 K) was 0.0425. For the same compound, the solubility (mole fraction) (in ethyl acetate, 323.15 K) was 0.0487, the solubility (mole fraction) (in ethyl acetate, 328.15 K) was 0.055 and the solubility (mole fraction) (in ethyl acetate, 333.15 K) was 0.0621. For the same compound, the solubility (mole fraction) (in isobutanol, 293.15 K) was 0.02, the solubility (mole fraction) (in isobutanol, 298.15 K) was 0.0231 and the solubility (mole fraction) (in isobutanol, 303.15 K) was 0.0266. It also gave a solubility (mole fraction) (in isobutanol, 308.15 K) of 0.0306, a solubility (mole fraction) (in isobutanol, 313.15 K) of 0.0351 and a solubility (mole fraction) (in isobutanol, 318.15 K) of 0.0403. For the same compound, the solubility (mole fraction) (in isobutanol, 323.15 K) was 0.0462, the solubility (mole fraction) (in isobutanol, 328.15 K) was 0.0528 and the solubility (mole fraction) (in isobutanol, 333.15 K) was 0.0603. It also gave a solubility (mole fraction) (in isopropanol, 293.15 K) of 0.0505, a solubility (mole fraction) (in isopropanol, 298.15 K) of 0.0556 and a solubility (mole fraction) (in isopropanol, 303.15 K) of 0.0625. For the same compound, the solubility (mole fraction) (in isopropanol, 308.15 K) was 0.0677, the solubility (mole fraction) (in isopropanol, 313.15 K) was 0.0747 and the solubility (mole fraction) (in isopropanol, 318.15 K) was 0.0819. The solubility (mole fraction) (in isopropanol, 323.15 K) was 0.0902, the solubility (mole fraction) (in isopropanol, 328.15 K) was 0.0991 and the solubility (mole fraction) (in isopropanol, 333.15 K) was 0.107. It also gave a solubility (mole fraction) (in methanol, 293.15 K) of 0.0812, a solubility (mole fraction) (in methanol, 298.15 K) of 0.0864 and a solubility (mole fraction) (in methanol, 303.15 K) of 0.0931. The solubility (mole fraction) (in methanol, 308.15 K) was 0.1, the solubility (mole fraction) (in methanol, 313.15 K) was 0.107 and the solubility (mole fraction) (in methanol, 318.15 K) was 0.115. It also gave a solubility (mole fraction) (in methanol, 323.15 K) of 0.123, a solubility (mole fraction) (in methanol, 328.15 K) of 0.134 and a solubility (mole fraction) (in methanol, 333.15 K) of 0.143. For the same compound, the solubility (mole fraction) (in methyl acetate, 293.15 K) was 0.0266, the solubility (mole fraction) (in methyl acetate, 298.15 K) was 0.0305 and the solubility (mole fraction) (in methyl acetate, 303.15 K) was 0.0348. It also gave a solubility (mole fraction) (in methyl acetate, 308.15 K) of 0.0396, a solubility (mole fraction) (in methyl acetate, 313.15 K) of 0.045 and a solubility (mole fraction) (in methyl acetate, 318.15 K) of 0.0509. It also gave a solubility (mole fraction) (in methyl acetate, 323.15 K) of 0.0573, a solubility (mole fraction) (in methyl acetate, 328.15 K) of 0.0643 and a solubility (mole fraction) (in methyl acetate, 333.15 K) of 0.0718. The solubility (mole fraction) (in n-butanol, 293.15 K) was 0.0354, the solubility (mole fraction) (in n-butanol, 298.15 K) was 0.0398 and the solubility (mole fraction) (in n-butanol, 303.15 K) was 0.0446. It also gave a solubility (mole fraction) (in n-butanol, 308.15 K) of 0.0499, a solubility (mole fraction) (in n-butanol, 313.15 K) of 0.0557 and a solubility (mole fraction) (in n-butanol, 318.15 K) of 0.0621. The solubility (mole fraction) (in n-butanol, 323.15 K) was 0.069, the solubility (mole fraction) (in n-butanol, 328.15 K) was 0.0766 and the solubility (mole fraction) (in n-butanol, 333.15 K) was 0.0847. It also gave a solubility (mole fraction) (in n-propanol, 293.15 K) of 0.0425, a solubility (mole fraction) (in n-propanol, 298.15 K) of 0.0475 and a solubility (mole fraction) (in n-propanol, 303.15 K) of 0.053. It also gave a solubility (mole fraction) (in n-propanol, 308.15 K) of 0.0582, a solubility (mole fraction) (in n-propanol, 313.15 K) of 0.0646 and a solubility (mole fraction) (in n-propanol, 318.15 K) of 0.0713. The solubility (mole fraction) (in n-propanol, 323.15 K) was 0.0783, the solubility (mole fraction) (in n-propanol, 328.15 K) was 0.0864 and the solubility (mole fraction) (in n-propanol, 333.15 K) was 0.0957.
